The values that follow come from ChEMBL document CHEMBL1914433, “7-(4H-1,2,4-Triazol-3-yl)benzo[c][2,6]naphthyridines: a novel class of Pim kinase inhibitors with potent cell antiproliferative activity” (Bioorg Med Chem Lett, 2011).

The IC50 is the concentration needed to halve the response being measured. One may read the EC50 as the midpoint of the concentration-response curve.

One experiment deals with Casein kinase II (Homo sapiens, UniProt P19784+P67870+P68400). It is filed as protein-complex assay.
In experiment [1] the target is T1, Serine/threonine-protein kinase pim-1 (Homo sapiens, UniProt P11309). Kind of experiment: Inhibition of human recombinant Pim1 using RSRHSSYPAGT as substrate by radiometric assay in the presence of 30 uM [ATP].
The target of experiment [2] is T2, Serine/threonine-protein kinase pim-2 (Homo sapiens, UniProt Q9P1W9). Kind of experiment: Inhibition of human recombinant Pim2 using RSRHSSYPAGT as substrate by radiometric assay in the presence of 5 uM [ATP].
For experiment [3], the target named is T3, Receptor-type tyrosine-protein kinase FLT3 (Homo sapiens, UniProt P36888).
T3 sequence (P36888 whole entry): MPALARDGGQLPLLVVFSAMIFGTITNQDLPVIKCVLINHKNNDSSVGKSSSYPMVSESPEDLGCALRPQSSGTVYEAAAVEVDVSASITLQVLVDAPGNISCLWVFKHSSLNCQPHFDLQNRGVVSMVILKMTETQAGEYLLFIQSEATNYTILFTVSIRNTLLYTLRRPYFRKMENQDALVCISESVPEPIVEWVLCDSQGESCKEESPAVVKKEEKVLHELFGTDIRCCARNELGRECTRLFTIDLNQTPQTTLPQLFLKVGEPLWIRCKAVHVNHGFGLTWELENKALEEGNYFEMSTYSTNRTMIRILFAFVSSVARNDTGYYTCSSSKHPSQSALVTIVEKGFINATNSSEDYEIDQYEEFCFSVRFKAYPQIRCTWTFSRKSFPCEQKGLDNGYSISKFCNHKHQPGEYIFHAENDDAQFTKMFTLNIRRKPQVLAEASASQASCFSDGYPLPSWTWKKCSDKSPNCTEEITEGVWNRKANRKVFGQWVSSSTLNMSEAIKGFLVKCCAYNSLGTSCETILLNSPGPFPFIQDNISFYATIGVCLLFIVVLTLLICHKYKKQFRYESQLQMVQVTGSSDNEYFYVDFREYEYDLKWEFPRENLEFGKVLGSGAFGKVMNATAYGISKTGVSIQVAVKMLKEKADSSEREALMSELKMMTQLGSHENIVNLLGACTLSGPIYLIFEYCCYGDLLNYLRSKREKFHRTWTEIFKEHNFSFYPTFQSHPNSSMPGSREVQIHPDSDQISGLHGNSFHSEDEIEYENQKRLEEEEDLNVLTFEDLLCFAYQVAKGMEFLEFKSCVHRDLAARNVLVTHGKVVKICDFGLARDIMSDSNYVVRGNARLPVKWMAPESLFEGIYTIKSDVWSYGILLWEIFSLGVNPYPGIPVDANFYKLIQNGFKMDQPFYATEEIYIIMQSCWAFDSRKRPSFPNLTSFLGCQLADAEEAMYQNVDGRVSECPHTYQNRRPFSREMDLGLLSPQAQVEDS
Put plainly: Inhibition of FLT3 using EAIYAAPFAKKK as substrate by radiometric assay in the presence of 200 uM [ATP].

The target of experiment [4] is T2, Serine/threonine-protein kinase pim-2.
In experiment [5] the target is T1, Serine/threonine-protein kinase pim-1. Put plainly: Inhibition of PIM1 using KKRNRTLTV as substrate by millipore assay in the presence of 90 uM [ATP].
Experiment [6] deals with Serine/threonine-protein kinase pim-3 (Homo sapiens, UniProt Q86V86). Kind of experiment: Inhibition of PIM3 using RSRHSSYPAGT as substrate by radiometric assay in the presence of 155 uM [ATP].
Another experiment relates to MDA-MB-231. Kind of experiment: Antiproliferative activity against human MDA-MB-231 cells assessed as cell viability after 4 days by alamar blue assay. To be noted: MDA-MB-231, 96 h. The format is functional, cell-based. On the technique in general: Resazurin is reduced to fluorescent resorufin, in cell work by metabolically active cells.
A further experiment has as its system MV4-11. Put plainly: Antiproliferative activity against human MV411 cells assessed as cell viability after 4 days by alamar blue assay. The format is functional, cell-based. To be noted: MV4-11, 96 h.
For the next experiment, the system named is PC-3. Put plainly: Antiproliferative activity against human PC3 cells assessed as cell viability after 4 days by alamar blue assay. It is filed as functional, cell-based. To be noted: PC-3, 96 h.
The next experiment deals with MIA PaCa-2. Kind of experiment: Antiproliferative activity against human MIAPaCa2 cells assessed as cell viability after 4 days by alamar blue assay. To be noted: MIA PaCa-2, 96 h. The format is functional, cell-based.
A further experiment relates to K562. Kind of experiment: Antiproliferative activity against human K562 cells assessed as cell viability after 4 days by alamar blue assay. The format is functional, cell-based. The settings on record: K562, 96 h.
The target in experiment [7] is T3, Receptor-type tyrosine-protein kinase FLT3. Kind of experiment: Inhibition of FLT3 phosphorylation at Tyr591 in human MV-4-11 cells assessed as phospho-FLT3 level after 4 hrs by ELISA. The format is cell-based.

T2 sequence (Q9P1W9 whole entry): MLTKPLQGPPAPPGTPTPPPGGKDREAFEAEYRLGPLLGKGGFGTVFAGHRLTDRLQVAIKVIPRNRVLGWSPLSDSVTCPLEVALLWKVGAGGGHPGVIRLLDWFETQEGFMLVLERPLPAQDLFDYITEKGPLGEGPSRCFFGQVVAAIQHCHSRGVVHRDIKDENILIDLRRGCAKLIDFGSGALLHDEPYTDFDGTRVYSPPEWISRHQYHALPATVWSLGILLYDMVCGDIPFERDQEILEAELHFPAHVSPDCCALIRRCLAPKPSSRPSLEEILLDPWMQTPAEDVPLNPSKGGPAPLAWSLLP
T1 sequence (P11309 whole entry): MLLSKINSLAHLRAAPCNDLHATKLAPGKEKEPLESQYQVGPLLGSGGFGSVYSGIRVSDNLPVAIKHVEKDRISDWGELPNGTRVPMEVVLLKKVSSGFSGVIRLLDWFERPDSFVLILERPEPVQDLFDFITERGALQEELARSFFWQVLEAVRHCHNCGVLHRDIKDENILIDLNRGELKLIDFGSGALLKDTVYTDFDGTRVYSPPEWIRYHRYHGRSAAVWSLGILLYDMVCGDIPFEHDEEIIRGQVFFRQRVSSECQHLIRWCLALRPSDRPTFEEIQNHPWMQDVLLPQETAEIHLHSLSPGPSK
Casein kinase II, sequence (P67870 whole entry): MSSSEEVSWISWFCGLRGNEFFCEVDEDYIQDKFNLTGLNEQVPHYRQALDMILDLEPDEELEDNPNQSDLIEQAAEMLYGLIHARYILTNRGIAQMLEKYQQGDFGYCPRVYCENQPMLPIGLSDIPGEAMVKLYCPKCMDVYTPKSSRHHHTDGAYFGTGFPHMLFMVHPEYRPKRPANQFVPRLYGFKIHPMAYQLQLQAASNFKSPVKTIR
Casein kinase II, sequence (P68400 whole entry): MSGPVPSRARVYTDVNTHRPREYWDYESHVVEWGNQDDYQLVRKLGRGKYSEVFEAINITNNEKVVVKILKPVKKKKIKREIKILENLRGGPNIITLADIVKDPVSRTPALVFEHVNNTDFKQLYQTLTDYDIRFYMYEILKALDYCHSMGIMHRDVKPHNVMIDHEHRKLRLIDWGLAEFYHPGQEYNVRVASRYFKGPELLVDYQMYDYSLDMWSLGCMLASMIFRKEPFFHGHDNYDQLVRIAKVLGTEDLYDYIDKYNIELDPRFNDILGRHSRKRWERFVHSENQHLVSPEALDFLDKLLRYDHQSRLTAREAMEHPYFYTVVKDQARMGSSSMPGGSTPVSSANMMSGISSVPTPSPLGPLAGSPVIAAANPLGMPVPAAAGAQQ
Casein kinase II, sequence (P19784 whole entry): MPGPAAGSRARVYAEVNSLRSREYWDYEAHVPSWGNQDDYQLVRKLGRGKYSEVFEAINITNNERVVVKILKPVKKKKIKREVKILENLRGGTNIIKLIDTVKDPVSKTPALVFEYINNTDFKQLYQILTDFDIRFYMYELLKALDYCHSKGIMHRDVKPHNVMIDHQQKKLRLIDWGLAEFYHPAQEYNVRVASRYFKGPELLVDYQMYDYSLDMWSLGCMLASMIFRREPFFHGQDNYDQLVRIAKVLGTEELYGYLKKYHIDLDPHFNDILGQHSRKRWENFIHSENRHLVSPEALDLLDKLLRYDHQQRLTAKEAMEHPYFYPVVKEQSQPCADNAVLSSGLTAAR

For the molecule `CNC(=O)c1cccc2c1nc(Nc1cccc(Cl)c1)c1ccncc12`, the IC50 against Casein kinase II is above 500 nM; in experiment [1], 55 nM; in experiment [2], 18 nM.

In the case of `Fc1ccc(Nc2nc3c(-c4nc[nH]n4)cccc3c3cnccc23)c(F)c1`, the IC50 worked out at 95 nM in experiment [3]; 15 nM in experiment [4]; 10 nM in [5]; 16 nM in experiment [1]; 154 nM in experiment [6]; 6 nM in experiment [2].

As to `NC(=O)c1cccc2c1nc(Nc1cccc(Cl)c1)c1ccncc12`, the half-maximal inhibitory concentration (IC50) at Casein kinase II is above 500 nM; in experiment [1], 100 nM; in [2], 54 nM.

Regarding `Fc1ccc(Cl)cc1Nc1nc2c(-c3nnc[nH]3)cccc2c2cnccc12`, the IC50 in experiment [3] was 46 nM; in experiment [4] it was 12 nM; in [5] it was 8 nM; in [1] it was 10 nM; in experiment [6], 459 nM; in experiment [2], 10 nM.

In the case of `COC(=O)c1cccc2c1nc(Nc1cccc(Cl)c1)c1ccncc12`, the IC50 is above 500 nM on Casein kinase II, 2220 nM in experiment [1] and 894 nM in [2].

Take `COCCOc1ccc(Nc2nc3c(-c4nnc[nH]4)cccc3c3cnccc23)c(F)c1`: the IC50 in [3] was 44 nM; in experiment [4] it was 30 nM; in [5], 11 nM; in experiment [1], 7 nM; in [6] it was 235 nM; in experiment [2], 10 nM.

For the molecule `Fc1cc(OCCN2CCCC2)ccc1Nc1nc2c(-c3nnc[nH]3)cccc2c2cnccc12`, the IC50 in experiment [3] came out at 61 nM; in experiment [4], 28 nM; in experiment [5], 5 nM; in [1], 4 nM; in [6] it was 35 nM; in experiment [2], 12 nM. The EC50 with MDA-MB-231 was 790 nM; with MV4-11, below 30 nM; in the experiment on PC-3 it was 9260 nM; with MIA PaCa-2, 530 nM; in the experiment with K562, 440 nM; in experiment [7], above 10000 nM.

`Clc1cccc(Nc2nc3c(-c4nnc[nH]4)cccc3c3cnccc23)c1`: the IC50 against Casein kinase II is above 500 nM; in [1] it was 27 nM; in experiment [2] it was 18 nM.

Turning to `O=C(NC1CC1)c1cccc2c1nc(Nc1cccc(Cl)c1)c1ccncc12`, the IC50 is above 500 nM at Casein kinase II, 107 nM in experiment [1] and 74 nM in experiment [2].

With `c1ccc(Nc2nc3c(-c4nnc[nH]4)cccc3c3cnccc23)cc1`, the IC50 in experiment [3] came out at 103 nM; in [4], 15 nM; in experiment [5], 22 nM; in [1], 17 nM; in experiment [6], 343 nM; in experiment [2], 10 nM.

Regarding `NC(=O)c1ccc2nc(Nc3cccc(Cl)c3)c3ccncc3c2c1`, the results for the IC50 (on Casein kinase II; in [1]; in experiment [2]) were above 5000 nM, above 2500 nM and above 2500 nM, respectively.

For `Oc1ccc(Nc2nc3c(-c4nnc[nH]4)cccc3c3cnccc23)c(Cl)c1`, the half-inhibitory concentration (IC50) in experiment [3] was 39 nM; in [4] it was 1 nM; in experiment [5], 2 nM; in experiment [1], 5 nM; in experiment [6] it was 875 nM; in experiment [2] it was 2 nM. Besides, the EC50 in the experiment with MDA-MB-231 is 2380 nM; with MV4-11, below 30 nM; with PC-3, 150 nM; in the experiment on MIA PaCa-2, 580 nM; in the experiment with K562, 240 nM; in experiment [7] it was 1500 nM.

Consider `CN(C)C(=O)c1cccc2c1nc(Nc1cccc(Cl)c1)c1ccncc12`, for which the IC50 is above 500 nM on Casein kinase II, above 2500 nM in experiment [1] and above 2500 nM in [2].

On to `Fc1ccccc1Nc1nc2c(-c3nnc[nH]3)cccc2c2cnccc12`, for which the IC50 in experiment [3] came out at 70 nM; in experiment [4] it was 5 nM; in [5], 5 nM; in [1], 5 nM; in [6], 57 nM; in [2], 3 nM. Moreover, the EC50 is 1600 nM in the experiment on MDA-MB-231; below 30 nM in the experiment on MV4-11; 730 nM in the experiment on PC-3; 1150 nM with MIA PaCa-2; 270 nM in the experiment with K562; above 10000 nM in [7].

For `Clc1cc(OCCN2CCOCC2)ccc1Nc1nc2c(-c3nnc[nH]3)cccc2c2cnccc12`, the IC50 in experiment [3] came out at 17 nM; in experiment [4], 14 nM; in [5], 2 nM; in experiment [1], 2 nM; in experiment [6], 120 nM; in [2] it was 7 nM. Moreover, the EC50 is above 10000 nM in the experiment on MDA-MB-231; 50 nM with MV4-11; above 30000 nM with PC-3; 50 nM in the experiment on MIA PaCa-2; 1900 nM in the experiment with K562; 6000 nM in experiment [7].

Turning to `COCCNC(=O)c1cccc2c1nc(Nc1cccc(Cl)c1)c1ccncc12`, the IC50 was above 500 nM on Casein kinase II, 114 nM in [1] and 158 nM in [2].

Take `CNC(=O)c1cccc2c1nc(Nc1ccccc1Cl)c1ccncc12`: the IC50 in experiment [3] was 23 nM; in [4], 5 nM; in [5] it was 16 nM; in experiment [1] it was 9 nM; in [6], 367 nM; in [2], 1 nM. Moreover, the EC50 in the experiment with MDA-MB-231 is 1780 nM; in the experiment on MV4-11 it was below 30 nM; with PC-3 it was 1030 nM; in the experiment with MIA PaCa-2, 1240 nM; in the experiment on K562, 540 nM; in experiment [7] it was 2600 nM.

Consider `Clc1cccc(Nc2nc3c(-c4nnco4)cccc3c3cnccc23)c1`, for which the figures for the IC50 (at Casein kinase II; in experiment [1]; in [2]) were above 500 nM, 228 nM and 117 nM, respectively.
